Results from patent US20240123079A1 (Seagen Inc., priority 2021, published 2024).

Assay: In vivo cytokine assay, plasma of Renca tumor-bearing mice
Parameters: species or system mouse; IFNg production in plasma / IL-1b production in plasma / IL-6 production in plasma / IL12p70 production in plasma / IP10 production in plasma / MIP1a production in plasma / MIP1b production in plasma / TNFa production in plasma: unit not given here
Description: Cytokines were measured in mouse plasma harvested at 3, 6, 24, or 48 hours after treatment with compounds or ADCs using a Milliplex MAP mouse cytokine/chemokine magnetic bead panel assay kit (MCYTOMAG-70k custom 11-plex kit: MCP1, MIP1α, MIP1β, TNFα, IFNγ, IL-10, IL-12p70, IL-6, IL-1β, IP10, RANTES) and analyzed using a Luminex™ MAGPIX™ Instrument System. Values that were outside of the standard curve range (<3.2 or […]) were excluded from calculation of the mean values.

## CCn1nc(C)cc1C(=O)Nc1nc2cc(C(N)=O)cc(OC)c2n1C/C=C/Cn1c(NC(=O)c2cc(C)nn2CC)nc2cc(C(N)=O)cc(OCCCNC)c21 [Compound 12a]
0.2 mg/kg, dose #1, 3 h
  IFNg production in plasma: <3.2
  IL12p70 production in plasma: <3.2
  IL-1b production in plasma: 0.7
  IL-6 production in plasma: 780.0
  IL-10 production in plasma: 15.6
  IP10 production in plasma: 1989.6
  MCP-1 production in plasma: 333.3
  MIP1a production in plasma: 10.3
  MIP1b production in plasma: 727.2
  RANTES production in plasma: <3.2
  TNFa production in plasma: 9.1
0.2 mg/kg, dose #1, 6 h
  IFNg production in plasma: 4.6
  IL12p70 production in plasma: <3.2
  IL-1b production in plasma: 0.7
  IL-6 production in plasma: 266.1
  IL-10 production in plasma: <3.2
  IP10 production in plasma: 8985.4
  MCP-1 production in plasma: 7790.8
  MIP1a production in plasma: 101.9
  MIP1b production in plasma: 670.7
  RANTES production in plasma: 130.3
  TNFa production in plasma: 8.1
0.2 mg/kg, dose #1, 24 h
  IFNg production in plasma: <3.2
  IL12p70 production in plasma: <3.2
  IL-1b production in plasma: 3.2
  IL-6 production in plasma: 4.1
  IL-10 production in plasma: <3.2
  IP10 production in plasma: 257.9
  MCP-1 production in plasma: 53.0
  MIP1a production in plasma: <3.2
  MIP1b production in plasma: <3.2
  RANTES production in plasma: 3.2
  TNFa production in plasma: 3.2
0.2 mg/kg, dose #1, 48 h
  IFNg production in plasma: <3.2
  IL12p70 production in plasma: <3.2
  IL-1b production in plasma: 0.7
  IL-6 production in plasma: 5.6
  IL-10 production in plasma: <3.2
  IP10 production in plasma: 172.8
  MCP-1 production in plasma: 56.8
  MIP1a production in plasma: 10.3
  MIP1b production in plasma: <3.2
  RANTES production in plasma: <3.2
  TNFa production in plasma: 4.3
0.2 mg/kg, dose #2, 6 h
  IFNg production in plasma: 16.5
  IL12p70 production in plasma: <3.2
  IL-1b production in plasma: 2.7
  IL-6 production in plasma: 410.9
  IL-10 production in plasma: 1.2
  IP10 production in plasma: >10000
  MCP-1 production in plasma: 5244.6
  MIP1a production in plasma: 104.9
  MIP1b production in plasma: 718.6
  RANTES production in plasma: 133.8
  TNFa production in plasma: 10.0
0.6 mg/kg, dose #1, 3 h
  IFNg production in plasma: <3.2
  IL12p70 production in plasma: <3.2
  IL-1b production in plasma: 0.7
  IL-6 production in plasma: 1899.7
  IL-10 production in plasma: 30.4
  IP10 production in plasma: 4826.2
  MCP-1 production in plasma: 1547.8
  MIP1a production in plasma: 251.5
  MIP1b production in plasma: 2471.0
  RANTES production in plasma: 20.1
  TNFa production in plasma: 21.0
0.6 mg/kg, dose #1, 6 h
  IFNg production in plasma: 18.3
  IL12p70 production in plasma: 3.1
  IL-1b production in plasma: 5.7
  IL-6 production in plasma: 424.0
  IL-10 production in plasma: 3.8
  IP10 production in plasma: 8828.3
  MCP-1 production in plasma: 12898.6
  MIP1a production in plasma: 137.2
  MIP1b production in plasma: 1050.0
  RANTES production in plasma: 255.0
  TNFa production in plasma: 15.6
0.6 mg/kg, dose #1, 24 h
  IFNg production in plasma: <3.2
  IL12p70 production in plasma: <3.2
  IL-1b production in plasma: 1.6
  IL-6 production in plasma: 6.1
  IL-10 production in plasma: <3.2
  IP10 production in plasma: 381.8
